In article PMC3224194 (European journal of pharmacology, 2011):
Residue numbers refer to the chain shown, from its start.

Legend:
Test in all cases: competition with [3H]-mesulergine, HEK membranes
Type in all cases: binding
[1] = target: T1, human 5-HT2C-INI (WT) receptor (Homo sapiens, UniProt P28335, Y358A)
T1 sequence (P28335 33-458 Y358A): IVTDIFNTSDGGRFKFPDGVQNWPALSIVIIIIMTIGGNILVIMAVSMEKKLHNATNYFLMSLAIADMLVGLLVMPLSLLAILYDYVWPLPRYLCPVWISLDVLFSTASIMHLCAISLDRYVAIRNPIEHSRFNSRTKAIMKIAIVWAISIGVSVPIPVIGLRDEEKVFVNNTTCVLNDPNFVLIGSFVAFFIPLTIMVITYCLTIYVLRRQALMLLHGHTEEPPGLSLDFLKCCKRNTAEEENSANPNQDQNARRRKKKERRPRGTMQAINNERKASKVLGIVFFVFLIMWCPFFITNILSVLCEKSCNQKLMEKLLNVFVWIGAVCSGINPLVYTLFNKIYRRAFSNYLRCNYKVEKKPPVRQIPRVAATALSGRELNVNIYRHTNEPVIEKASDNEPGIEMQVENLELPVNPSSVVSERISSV

[2] = target: T2, human 5-HT2C-INI (WT) receptor (Homo sapiens, UniProt P28335, S138A)
T2 sequence (P28335 33-458 S138A): T1 sequence (P28335 33-458 Y358A) with S106A, A326Y

[3] = target: T3, human 5-HT2C-INI (WT) receptor (Homo sapiens, UniProt P28335)
T3 sequence (P28335 33-458): T1 sequence (P28335 33-458 Y358A) with A326Y

SMILES | Ki [1] [nM] | Ki [2] [nM] | Ki [3] [nM]
NC1Cc2ccccc2C(c2ccccc2)C1 (racemic) [NH2-PAT] | 1350 | 9040 | 1550
NCCc1c[nH]c2ccccc12 [Tryptamine] | 298 | 1510 | 57.1
